Assay [1] is described as follows: Binding affinity to N-terminal polyhis-tagged Mycobacterium tuberculosis ICL1 C191S mutant expressed in Escherichia coli BL21 (DE3) in presence of MgCl2 by NMR binding analysis.
The test system of assay [2] is Mycobacterium tuberculosis. The assay can be described thus: Binding affinity to N-terminal polyhis-tagged Mycobacterium tuberculosis ICL1 C191S mutant expressed in Escherichia coli BL21 (DE3) assessed as compound-protein covalent adduct formation by measuring molecular mass at 1 mM after 12 hrs in presence of MgCl2 by LC-MS analysis.

Calls of active or inactive are those of the source. The rule behind the calls is not given here.

Consider one compound from ChEMBL document CHEMBL4680069, “Itaconate is a covalent inhibitor of the Mycobacterium tuberculosis isocitrate lyase” (RSC Med Chem, 2021).

As usually defined, the Kd is the free concentration of one partner at which half of the binding sites on the other are occupied at equilibrium, for simple one-to-one binding. In the case of `C=C(CC(=O)O)C(=O)O` [ITACONATE], the Kd in assay [1] was 155 µM. Besides, the result in assay [2] was Active.
